Activity calls are given as the source filed them. No cut-off for these calls is given here.
What was measured:
Rattus norvegicus [1] = experiment: Systolic blood pressure (SBP) in anesthetized spontaneously hypertensive rats(SHR) at 7.5 hours after administration of 75 mg/kg dose perorally; NS is not statistically significant
Rattus norvegicus [2] = experiment: Systolic blood pressure (SBP) in anesthetized spontaneously hypertensive rats (SHR) before administration of 75 mg/kg dose perorally.; format: functional; set-up: unit: mmHg; conditions: route oral
Rattus norvegicus [3] = experiment: Systolic blood pressure (SBP) in anesthetized spontaneously hypertensive rats(SHR) at 7.5 hours after administration of 75 mg/kg dose perorally; NS is not statistically significant.
Rattus norvegicus [4] = experiment: % decrease in hypothalamus norepinephrine in anesthetized spontaneously hypertensive rats(SHR) at 5 hours after administration of 150 mg/kg dose perorally; format: functional; conditions: route oral
Rattus norvegicus [5] = experiment: % decrease in heart norepinephrine in anesthetized spontaneously hypertensive rats(SHR) at 5 hours after administration of 35 mg/kg dose perorally; format: functional; conditions: route oral
Rattus norvegicus [6] = experiment: % decrease in heart 5-HT in anesthetized spontaneously hypertensive rats(SHR) at 5 hours after administration of 35 mg/kg dose perorally; format: functional; conditions: route oral
Rattus norvegicus [7] = experiment: % decrease in heart 5-HT in anesthetized spontaneously hypertensive rats(SHR) at 5 hours after administration of 150 mg/kg dose perorally; format: functional; conditions: route oral
Rattus norvegicus [8] = experiment: % decrease in hypothalamus DA in anesthetized spontaneously hypertensive rats(SHR) at 5 hours after administration of 150 mg/kg dose perorally; conditions: route oral
Rattus norvegicus [9] = experiment: % decrease in hypothalamus dopamine in anesthetized spontaneously hypertensive rats(SHR) at 5 hours after administration of 35 mg/kg dose perorally; format: functional; conditions: route oral
Rattus norvegicus [10] = experiment: % decrease in systolic blood pressure (SBP) in anesthetized spontaneously hypertensive rats(SHR) after administration of 150 mg/kg dose perorally; conditions: route oral
Rattus norvegicus [11] = experiment: % decrease in heart norepinephrine in anesthetized spontaneously hypertensive rats(SHR) at 5 hours after administration of 75 mg/kg dose perorally; format: functional; conditions: route oral
Rattus norvegicus [12] = experiment: % decrease in hypothalamus norepinephrine in anesthetized spontaneously hypertensive rats(SHR) at 5 hours after administration of 75 mg/kg dose perorally; format: functional; conditions: route oral
Rattus norvegicus [13] = experiment: % decrease in hypothalamus norepinephrine in anesthetized spontaneously hypertensive rats(SHR) at 5 hours after administration of 35 mg/kg dose perorally; format: functional; conditions: route oral
Rattus norvegicus [14] = experiment: % decrease in heart norepinephrine in anesthetized spontaneously hypertensive rats(SHR) at 5 hours after administration of 150 mg/kg dose perorally; format: functional; conditions: route oral
Rattus norvegicus [15] = experiment: % decrease in hypothalamus dopamine in anesthetized spontaneously hypertensive rats(SHR) at 5 hours after administration of 75 mg/kg dose perorally; format: functional; conditions: route oral
Rattus norvegicus [16] = experiment: % decrease in heart 5-HT in anesthetized spontaneously hypertensive rats(SHR) at 5 hours after administration of 75 mg/kg dose perorally; *value significantly different was control.; format: functional; conditions: route oral
Rattus norvegicus [17] = experiment: Systolic blood pressure (SBP) in anesthetized spontaneously hypertensive rats(SHR) at 7.5 hours after administration of 75 mg/kg dose perorally; format: functional; conditions: route oral
Adrenergic receptor beta = Adrenergic receptor beta (Rattus norvegicus, UniProt P18090+P10608+P26255)
Description: Inhibition constant from beta adrenergic receptor binding assay

Rattus norvegicus [18] = experiment: % decrease in adrenal epinephrine in anesthetized spontaneously hypertensive rats(SHR) at 24 hours after administration of 150 mg/kg dose perorally; format: functional; conditions: route oral
Rattus norvegicus [19] = experiment: % decrease in brain norepinephrine in anesthetized spontaneously hypertensive rats(SHR) at 24 hours after administration of 150 mg/kg dose perorally; conditions: route oral
Rattus norvegicus [20] = experiment: % decrease in heart norepinephrine in anesthetized spontaneously hypertensive rats(SHR) at 24 hours after administration of 150 mg/kg dose perorally; format: functional; conditions: route oral
Rattus norvegicus [21] = experiment: Compound was evaluated for % decrease in heart norepinephrine in anesthetized spontaneously hypertensive rats(SHR) at 24 hours after administration of 35 mg/kg dose perorally; format: functional; conditions: route oral
Rattus norvegicus [22] = experiment: Compound was evaluated for % decrease in adrenal epinephrine in anesthetized spontaneously hypertensive rats(SHR) at 24 hours after administration of 35 mg/kg dose perorally; format: functional; conditions: route oral
Rattus norvegicus [23] = experiment: Compound was evaluated for % decrease in hypothalamus norepinephrine in anesthetized spontaneously hypertensive rats(SHR) at 24 hours after administration of 35 mg/kg dose perorally; format: functional; conditions: route oral
Cavia porcellus = species on record: Cavia porcellus; experiment: Inhibition of the isoproterenol response at a dose of 1 x 10e -4M in guinea pig; slight inhibition was found; format: functional, organism-based
Rattus norvegicus [24] = experiment: Systolic blood pressure (SBP) in anesthetized spontaneously hypertensive rats(SHR) before administration of 30 mg/kg dose intravenously; format: functional; conditions: route intravenous
Rattus norvegicus [25] = experiment: Systolic blood pressure (SBP) in anesthetized spontaneously hypertensive rats(SHR) at 7.5 hours after administration of 30 mg/kg dose intravenously; NS is not statistically significant; format: functional, organism-based; set-up: dose 30 mg/kg
Rattus norvegicus [26] = experiment: Systolic blood pressure (SBP) in anesthetized spontaneously hypertensive rats(SHR) at 7.5 hours after administration of 75 mg/kg dose perorally; value not statistically significant.; format: functional; conditions: route oral
Rattus norvegicus [27] = experiment: Systolic blood pressure (SBP) in anesthetized spontaneously hypertensive rats(SHR) at 7.5 hours after administration of 35 mg/kg dose perorally; format: functional; conditions: route oral
Rattus norvegicus [28] = experiment: Systolic blood pressure (SBP) in anesthetized spontaneously hypertensive rats(SHR) before administration of 35 mg/kg dose perorally; format: functional; set-up: unit not given here; conditions: route oral

CC(C)[N+](C)(C)CC(O)COc1ccc2c(=O)cc(-c3ccccc3)oc2c1.[I-] (stereo unspecified)
Decrease in Systolic blood pressure (Rattus norvegicus [1]): Not significant | Systolic blood pressure (Rattus norvegicus [2]): 200

COc1ccc(CCNCC(O)COc2ccc3c(=O)cc(-c4ccccc4)oc3c2)cc1OC (stereo unspecified)
Decrease in Systolic blood pressure (Rattus norvegicus [3]): Not significant | Systolic blood pressure (Rattus norvegicus [2]): 204

COc1c(-c2ccccc2)oc2cc(OCC(O)CNC(C)C)ccc2c1=O (stereo unspecified)
Decrease (Rattus norvegicus [4]): 28% | Decrease (Rattus norvegicus [5]): 55% | Decrease (Rattus norvegicus [6]): 7% | Decrease (Rattus norvegicus [7]): 37% | Decrease in Systolic blood pressure (Rattus norvegicus [1]): Not significant | % decrease hypothalamus DA (Rattus norvegicus [8]): 37% | Decrease (Rattus norvegicus [9]): 29% | % decrease SBP (Rattus norvegicus [10]): 16% | Decrease (Rattus norvegicus [11]): 61% | Decrease (Rattus norvegicus [12]): 16% | Decrease (Rattus norvegicus [13]): 12% | Decrease (Rattus norvegicus [14]): 70% | Decrease (Rattus norvegicus [15]): 26% | Decrease (Rattus norvegicus [16]): 29%

CCCNCC(COc1ccc2c(=O)cc(-c3ccccc3)oc2c1)OC(=O)c1ccccc1 (stereo unspecified)
Decrease in Systolic blood pressure (Rattus norvegicus [17]): 22.5% | Systolic blood pressure (Rattus norvegicus [2]): 187

Cc1ccc(-c2cc(=O)c3ccc(OCC(O)CNC(C)C)cc3o2)cc1 (stereo unspecified)
Decrease in Systolic blood pressure (Rattus norvegicus [3]): Not significant | Systolic blood pressure (Rattus norvegicus [2]): 196

Cc1cc(=O)c2ccc(OCC(O)CNC(C)C)cc2o1 (stereo unspecified)
Decrease in Systolic blood pressure (Rattus norvegicus [3]): inactive | Ki (Adrenergic receptor beta): 23000 nM | Systolic blood pressure (Rattus norvegicus [2]): 196

CC(C)NCC(O)COc1ccc2c(=O)c(-c3ccccc3)coc2c1 (stereo unspecified)
Decrease (Rattus norvegicus [18]): 100% | Decrease (Rattus norvegicus [19]): 37% | Decrease (Rattus norvegicus [20]): 100% | % decrease SBP (Rattus norvegicus [10]): 34%

CC(C)NCC(O)COc1cccc2c(=O)cc(-c3ccccc3)oc12 (stereo unspecified)
Ki (Adrenergic receptor beta): 7.5 nM | Systolic blood pressure (Rattus norvegicus [2]): 209

CCCNCC(O)COc1ccc2c(=O)c(-c3ccccc3)c(-c3ccccc3)oc2c1 (stereo unspecified)
Decrease (Rattus norvegicus [21]): 100% | Decrease (Rattus norvegicus [22]): 10% | Decrease (Rattus norvegicus [23]): 12%

O=c1cc(-c2ccccc2)oc2cc(OCC(O)CNCC(O)COc3ccccc3)ccc12 (stereo unspecified)
Decrease in Systolic blood pressure (Rattus norvegicus [1]): Not significant | Systolic blood pressure (Rattus norvegicus [2]): 198

CC(C)NCC(O)COc1ccc2oc(-c3ccccc3)cc(=O)c2c1 (stereo unspecified)
Activity (Cavia porcellus): Weak activity | Ki (Adrenergic receptor beta): 2200 nM | Decrease in Systolic blood pressure (Rattus norvegicus [17]): 12% | Systolic blood pressure (Rattus norvegicus [2]): 199

CCCNCC(O)COc1cccc2oc(-c3ccccc3)cc(=O)c12 (stereo unspecified)
Systolic blood pressure (Rattus norvegicus [24]): 157 | Decrease in Systolic blood pressure (Rattus norvegicus [25]): Not significant

O=c1cc(-c2ccccc2)oc2cc(OCC(O)CN3CCN(c4ccccc4)CC3)ccc12 (stereo unspecified)
Decrease in Systolic blood pressure (Rattus norvegicus [3]): Not significant | Systolic blood pressure (Rattus norvegicus [2]): 217

COc1ccc(-c2cc(=O)c3ccc(OCC(O)CNC(C)C)cc3o2)cc1 (stereo unspecified)
Decrease in Systolic blood pressure (Rattus norvegicus [26]): 10% | Systolic blood pressure (Rattus norvegicus [2]): 198

CC(C)NCC(O)COc1ccc2c(=O)cc(-c3ccccc3Cl)oc2c1 (stereo unspecified)
Decrease in Systolic blood pressure (Rattus norvegicus [27]): 18% | Systolic blood pressure (Rattus norvegicus [28]): 192

CC(C)NCC(O)COc1ccc2c(=O)cc(-c3cccc(Cl)c3)oc2c1 (stereo unspecified)
Decrease in Systolic blood pressure (Rattus norvegicus [3]): Not significant | Systolic blood pressure (Rattus norvegicus [2]): 200

CC(C)NCC(O)COc1cc(O)c2c(=O)cc(-c3ccccc3)oc2c1 (stereo unspecified)
Decrease in Systolic blood pressure (Rattus norvegicus [17]): 15% | Systolic blood pressure (Rattus norvegicus [2]): 195

O=c1cc(-c2ccccc2)oc2cc(OCC(O)CNCc3ccccc3)ccc12 (stereo unspecified)
Decrease in Systolic blood pressure (Rattus norvegicus [3]): Not significant | Systolic blood pressure (Rattus norvegicus [2]): 223

CC(C)NCC(O)COc1ccc2c(=O)cc(-c3ccc([N+](=O)[O-])cc3)oc2c1 (stereo unspecified)
Decrease in Systolic blood pressure (Rattus norvegicus [3]): Not significant | Systolic blood pressure (Rattus norvegicus [2]): 202
